Source: US20140066431A1, “Benzoxazepines as Inhibitors of PI3K/mTOR and Methods of Their Use and Manufacture” (Exelixis, Inc., priority 2010, published 2014)
Where two headings read alike, the source gives them in different places.

Experiments:
[1] = molecular target: PI3Kβ (Homo sapiens, UniProt P42338); assay: PI3K biochemical assay, PI3Kβ
Method: PI3Kα activity is measured as the percent of ATP consumed following the kinase reaction using luciferase-luciferin-coupled chemiluminescence. Reactions were conducted in 384-well white, medium binding microtiter plates (Greiner). Kinase reactions were initiated by combining test compounds, ATP, substrate (PIP2), and kinase in a 20 μL volume in a buffer solution. The standard PI3Kalpha assay buffer is composed 50 mM Tris, pH 7.5, 1 mM EGTA, 10 mM MgCl2, 1 mM DTT and 0.03% CHAPS. The standard assay concentrations for enzyme, ATP, and substrate are 1.5 nM, 1 μM, and 10 μM, respectively. The reaction mixture was incubated at ambient temperature for approximately 2 h. Following the kinase reaction, a 10 μL aliquot of luciferase-luciferin mix (Promega Kinase-Glo) was added and the chemiluminescence signal measured using a Victor2 plate reader (Perkin Elmer). […] Substituting PI3Kα with PI3Kβ, PI3Kγ, or PI3Kδ, the inhibitory activity of the compounds for the other isoforms of I3K were measured.

[2] = tested on: MCF-7 cells (PI3Kα-E545K mutant); assay: pAKT (T308) ELISA assay, MCF-7; type: cell-based; conditions: Homo sapiens, MCF7
Method: MCF-7 cells (ATCC) cells were seeded at 24000 cells per well in 96-well plates (Corning, 3904) in DMEM (Cellgro) containing 10% FBS (Cellgro), 1% NEAA (Cellgro) and 1% penicillin-streptomycin (Cellgro). Cells were incubated at 37° C., 5% CO2 for 48 h, and the growth medium was replaced with serum-free DMEM or in medium containing 0.4% BSA. Serial dilutions of the test compound in 0.3% DMSO (vehicle) were added to the cells and incubated for 3 h. At the end of the incubation period, cells were stimulated for 10 minutes by the addition of L-IGF (Sigma, I-1271) at a final concentration of 100 ng/ml. Afterwards, media was discarded from cell plates and 110 μl/well of cold lysis buffer (see table below) were added. Cell plates were incubated on ice and then put on shaker in 4° C. cold room for 1 h. Two capture plates (Thermo Scientific, Reacti-bind plate, 15042) were prepared for each cell plate by pre-coating with capture Akt antibody from the two sandwich ELISA antibody pairs used (Cell Signaling Technology 7142 and 7144). The Akt capture antibodies were diluted 1:100 in PBS and […] of diluted capture antibody was added per well. […] After 1 minute incubation, chemiluminescence was read on a Wallac Victor2 1420 multilabel counter. IC50 values were determined based on the ratio of pAkt(T308) to total Akt1 signal for compound treated wells, normalized to the DMSO-treated control wells. […]

[3] = molecular target: PI3Kγ (Homo sapiens, UniProt P48736); assay: PI3K biochemical assay, PI3Kγ; conditions: PIP2 as substrate
Method: PI3Kα activity is measured as the percent of ATP consumed following the kinase reaction using luciferase-luciferin-coupled chemiluminescence. Reactions were conducted in 384-well white, medium binding microtiter plates (Greiner). Kinase reactions were initiated by combining test compounds, ATP, substrate (PIP2), and kinase in a 20 μL volume in a buffer solution. The standard PI3Kalpha assay buffer is composed 50 mM Tris, pH 7.5, 1 mM EGTA, 10 mM MgCl2, 1 mM DTT and 0.03% CHAPS. The standard assay concentrations for enzyme, ATP, and substrate are 1.5 nM, 1 μM, and 10 μM, respectively. The reaction mixture was incubated at ambient temperature for approximately 2 h. Following the kinase reaction, a 10 μL aliquot of luciferase-luciferin mix (Promega Kinase-Glo) was added and the chemiluminescence signal measured using a Victor2 plate reader (Perkin Elmer). Total ATP consumption was limited to 40-60% and IC50 values of control compounds correlate well with literature references. Substituting PI3Kα with PI3Kβ, PI3Kγ, or PI3Kδ, the inhibitory activity of the compounds for the other isoforms of I3K were measured.

Sequence of PI3Kβ (P42338 whole entry): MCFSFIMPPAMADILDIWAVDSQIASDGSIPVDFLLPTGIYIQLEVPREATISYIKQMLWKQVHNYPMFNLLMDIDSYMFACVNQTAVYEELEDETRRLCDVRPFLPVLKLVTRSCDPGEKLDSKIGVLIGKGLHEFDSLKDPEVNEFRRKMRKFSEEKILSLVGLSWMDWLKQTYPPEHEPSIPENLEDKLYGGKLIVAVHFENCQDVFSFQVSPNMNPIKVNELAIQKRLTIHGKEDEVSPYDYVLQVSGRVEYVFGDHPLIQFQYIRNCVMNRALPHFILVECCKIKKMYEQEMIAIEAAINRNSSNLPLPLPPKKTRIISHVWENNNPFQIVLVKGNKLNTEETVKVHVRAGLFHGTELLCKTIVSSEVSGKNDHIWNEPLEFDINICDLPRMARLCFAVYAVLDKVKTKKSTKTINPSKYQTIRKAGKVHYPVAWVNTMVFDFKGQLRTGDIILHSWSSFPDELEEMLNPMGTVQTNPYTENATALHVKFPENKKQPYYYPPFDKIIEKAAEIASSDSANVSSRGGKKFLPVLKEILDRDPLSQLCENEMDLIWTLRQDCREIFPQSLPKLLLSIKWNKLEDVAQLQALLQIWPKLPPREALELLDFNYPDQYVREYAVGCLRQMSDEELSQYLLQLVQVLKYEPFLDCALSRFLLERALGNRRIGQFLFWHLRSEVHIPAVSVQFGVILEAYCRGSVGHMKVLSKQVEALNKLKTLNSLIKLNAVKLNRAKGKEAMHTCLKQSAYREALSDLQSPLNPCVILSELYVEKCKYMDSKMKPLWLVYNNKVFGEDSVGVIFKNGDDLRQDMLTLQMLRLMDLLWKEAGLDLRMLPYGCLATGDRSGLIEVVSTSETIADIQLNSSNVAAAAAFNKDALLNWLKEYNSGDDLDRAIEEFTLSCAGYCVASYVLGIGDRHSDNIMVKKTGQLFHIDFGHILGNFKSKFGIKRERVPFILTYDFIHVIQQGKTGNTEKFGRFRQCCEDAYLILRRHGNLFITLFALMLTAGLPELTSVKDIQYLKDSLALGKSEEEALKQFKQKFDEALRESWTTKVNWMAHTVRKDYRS
Sequence of PI3Kβ (P27986 whole entry partner): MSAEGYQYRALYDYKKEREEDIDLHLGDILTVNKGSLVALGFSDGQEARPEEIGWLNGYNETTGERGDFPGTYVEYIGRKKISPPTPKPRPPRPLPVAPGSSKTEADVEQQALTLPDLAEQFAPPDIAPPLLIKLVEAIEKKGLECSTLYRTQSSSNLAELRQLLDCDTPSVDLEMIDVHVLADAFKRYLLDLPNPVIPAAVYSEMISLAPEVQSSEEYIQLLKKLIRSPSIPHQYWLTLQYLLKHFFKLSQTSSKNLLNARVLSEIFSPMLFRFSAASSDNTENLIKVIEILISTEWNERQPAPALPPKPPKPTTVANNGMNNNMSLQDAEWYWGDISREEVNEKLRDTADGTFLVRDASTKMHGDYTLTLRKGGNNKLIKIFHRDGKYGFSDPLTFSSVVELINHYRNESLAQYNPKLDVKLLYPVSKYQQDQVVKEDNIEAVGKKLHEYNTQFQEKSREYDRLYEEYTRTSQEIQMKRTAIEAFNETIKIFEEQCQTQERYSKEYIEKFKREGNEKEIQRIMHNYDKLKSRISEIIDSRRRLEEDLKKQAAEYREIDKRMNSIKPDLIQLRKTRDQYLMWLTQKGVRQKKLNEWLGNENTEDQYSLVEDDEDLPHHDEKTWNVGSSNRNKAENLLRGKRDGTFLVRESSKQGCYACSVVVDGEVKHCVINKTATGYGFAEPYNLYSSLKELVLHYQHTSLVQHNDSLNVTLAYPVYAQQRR
Sequence of PI3Kγ (P48736 whole entry): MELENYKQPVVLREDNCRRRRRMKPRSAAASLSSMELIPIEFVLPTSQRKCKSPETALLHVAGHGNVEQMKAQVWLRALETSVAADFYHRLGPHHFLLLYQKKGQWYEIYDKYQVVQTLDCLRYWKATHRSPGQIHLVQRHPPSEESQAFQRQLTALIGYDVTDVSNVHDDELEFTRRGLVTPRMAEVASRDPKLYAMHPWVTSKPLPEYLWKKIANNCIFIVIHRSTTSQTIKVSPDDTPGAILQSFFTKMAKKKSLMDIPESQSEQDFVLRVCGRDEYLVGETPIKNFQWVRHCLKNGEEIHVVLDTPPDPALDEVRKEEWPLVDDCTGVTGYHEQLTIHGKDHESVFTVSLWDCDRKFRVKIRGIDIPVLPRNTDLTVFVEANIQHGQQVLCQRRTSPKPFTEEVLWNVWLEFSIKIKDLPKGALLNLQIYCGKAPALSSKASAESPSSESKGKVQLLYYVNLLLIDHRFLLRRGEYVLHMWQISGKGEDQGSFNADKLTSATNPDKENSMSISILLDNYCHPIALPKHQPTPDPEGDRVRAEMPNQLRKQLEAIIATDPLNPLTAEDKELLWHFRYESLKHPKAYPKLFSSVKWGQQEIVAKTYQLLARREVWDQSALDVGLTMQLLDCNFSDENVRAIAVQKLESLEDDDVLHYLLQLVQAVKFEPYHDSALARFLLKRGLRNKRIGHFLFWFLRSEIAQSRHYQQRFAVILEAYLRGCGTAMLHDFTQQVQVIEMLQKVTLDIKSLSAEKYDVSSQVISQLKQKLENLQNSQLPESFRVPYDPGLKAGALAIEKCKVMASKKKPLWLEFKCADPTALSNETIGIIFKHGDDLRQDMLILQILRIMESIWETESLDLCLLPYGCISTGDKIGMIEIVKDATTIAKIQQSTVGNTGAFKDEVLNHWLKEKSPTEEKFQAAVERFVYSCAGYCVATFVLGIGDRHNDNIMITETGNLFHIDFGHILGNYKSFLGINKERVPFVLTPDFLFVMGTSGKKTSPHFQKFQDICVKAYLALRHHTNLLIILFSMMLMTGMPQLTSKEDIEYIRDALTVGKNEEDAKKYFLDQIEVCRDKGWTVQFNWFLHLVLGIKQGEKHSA

activity against PI3Kβ (in words) [1]: active
IC50 ([2]; IGF1 stimulation, Table 5, read-out: pAKT (T308) IC50 MCF-7 PI3Kα E545K IGF1): 1760 nM
IC50 ([2]; PI3KαE545K, Table 6, read-out: Cellular pAKT (T308) IC50 MCF-7): > 30000 nM
IC50 [3]: 1680 nM
Compound: Cc1cc(C(C)Nc2ccccc2)c2nc(N3CCOCC3)cc(=O)n2c1 (stereo not shown) [TGX-221, 7-methyl-2-(4-morpholinyl)-9-[1-(phenylamino)ethyl]-4H-pyrido[1,2-a]pyrimidin-4-one]
